One experiment deals with S. gordonii ATCC 51656. The experiment can be described thus: Bactericidal assay (log reduction in viable counts). The format is cell-based, Streptococcus gordonii. An excerpt: (§1) Strains used in Examples 3-6 included ATCC and laboratory strains of different oral bacteria. These included: Actinomyces naeslundii strain T14V-J1, Actinomyces israelii ATCC 10049, Streptococcus mutans strains LT 11 and ATCC 25175, Streptococcus sobrinus ATCC 33478, Streptococcus gordonii strains DL1 and ATCC 51656, Streptococcus sanguis strains SK36 and ATCC 10556, Streptococcus salivarius ATCC 9222, Streptococcus oralis strains 34 and ATCC 35037, Lactobacillus salivarius ATCC 29602, Lactobacillus acidophilus ATCC 4357, and Actinobacillus actinomycetemcomitans ATCC 43718. S. mutans strain LT 11 was kindly provided by Lin Tao, University of Illinois at Chicago, Ill. S. gordonii DLI, S. sanguis SK36, and S. oralis 34 were provided by John Cisar, National Institute of Dental and Craniofacial Research, NIH, Bethesda, Md.
The bactericidal assay was performed according to procedures described by Miyasaki et al. (1997, 1998) with a slight modification. […] Susceptibility was determined by examining the log reduction in viability counts of organisms that had been exposed to different concentrations of KSL. […] Bactericidal activity was also expressed as the 99% effective dose (ED99), which is the concentration of the antimicrobial decapeptide at which there is a 2-log or more reduction in c.f.u. […]
In addition to the determinations of MICs and MBCs of KSL, log reductions in viable counts of selected oral bacteria caused by KSL were also determined. […] With the exception of Actinobacillus actinomycetemcomitans, for which the assays were performed in 0.01% BHI, bactericidal action of KSL was determined in isotonic HBSS after incubation with the targeted bacteria for 1 h at 37° C. KSL at 6.25 μg ml^−1, which was determined to be the 99% effective dose (ED99), caused more than 2 log reductions in viable counts of the organisms tested, which included L. salivarius ATCC 29602 (FIG. 3a), S. mutans ATCC 25175^T (FIG. 3b), S. gordonii ATCC 51656 (FIG. 3c), and Actinobacillus actinomycetemcomitans ATCC 43718 (FIG. 3d).

The subject of the next experiment is S. sanguis SK36. The experiment can be described thus: In vitro susceptibility (broth microdilution MIC, MBC by spiral-plating). The format is cell-based, Streptococcus sanguis. Particulars: 24-48 h.
Description: as §1
(§2) Todd-Hewitt broth (THB), brain heart infusion (BHI) broth, Todd-Hewitt agar (THA), trypticase soy agar (TSA), lactobacilli MRS (MRS) broth, Actinomyces broth and Mueller-Hinton broth (MHB) were purchased from Becton Dickinson. Blood agar plates (BAP) were prepared by supplementing TSA with 5% sheep blood (PML Microbiologicals). All cultures, except for Actinobacillus actinomycetemcomitans, S. mitis and Actinomyces israelii, were grown at 37° C. in room air. Actinobacillus actinomycetemcomitans cultures were grown on BAP or in MHB supplemented with 15 μg haemin ml^−1 (Sigma), 15 μg β-nicotinamide adenine dinucleotide (NAD) ml^−1 (Sigma) and 5% yeast extract (Becton Dickinson) at 37° C. in 5% CO2. S. mitis was grown on BAP or in BHI broth at 37° C. in 5% CO2. Actinomyces israeilli was grown anaerobically in an anaerobic chamber (Coy Laboratory Products) in a 5% CO2/10% H2/85% N2 atmosphere.
(§3) MICs were determined as described by Fuchs et al. (1998) with a slight modification. Procedures were based on the National Committee for Clinical Laboratory Standards broth microdilution method. MHB was used as the main assay medium for most of the tested organisms. Freshly grown cultures at exponential phase were used as the inoculum. Bacteria were centrifuged at 4000 r.p.m. for 15 min at 4° C., suspended in 2× concentrated medium and adjusted to 4×106 c.f.u ml−1 in 2× concentrated medium. Aqueous peptide solution (100 μl) was added to each well of a 96-well, flat-bottomed plate (Becton Dickinson). […] The MIC was defined as the lowest concentration of the peptide that prevented visible turbidity, as measured at 600 nm by using an ELISA reader (Titertek Multiskan MCC/340). […] Minimum bactericidal concentrations (MBCs) were determined by spiral-plating (Spiral Plater Autoplate 4000; Spiral Biotech) 50 μl from each clear well (≧MIC) onto BAP.
In general terms: Dilution methods test growth across graded concentrations, often in twofold steps.

Another experiment relates to S. sanguis ATCC 10556. Described as above. In kind it is cell-based, Streptococcus sanguis. Particulars: 24-48 h.
Description: as §1, §2, §3

Where [1] appears, read: MHB, 4 × 10^6 cells ml^−1, 37° C.

Ends that are not written are not given here.

For orientation: MIC means the lowest concentration that inhibits growth of the organism. The low end stands for inhibition by little substance, the high end for a need for much substance. The MBC is the lowest tested concentration that kills the bacteria rather than only halting them.

In the case of “KKVVFKVKFK-NH2 [KSL, lys-lys-val-val-phe-lys-val-lys-phe-lys]”, in the experiment with S. gordonii ATCC 51656 (6.25 μg ml^−1, HBSS, FIG. 3c), the “log reduction in viable counts” value was “more than 2 log”. The reduction in viability in the experiment on S. gordonii ATCC 51656 (concentrations of <10 μg ml^−1) is recorded as > 3 logs. Besides, in the experiment on S. gordonii ATCC 51656 (isotonic HBSS, 1 h at 37° C.), the “ED99 (99% effective dose)” value was determined as 6.25 µg/mL. For the same substance, the MIC in the experiment on S. sanguis SK36 (setting [1]) and against S. sanguis ATCC 10556 (setting [1]) was 25 µg/mL throughout. The values for the minimal bactericidal concentration (MBC) with S. sanguis SK36 (clear MIC wells plated on BAP) and with S. sanguis ATCC 10556 (clear MIC wells plated on BAP) were 50 µg/mL and 100 µg/mL, respectively.
